Source: EP0085985A1, “Pyridazinone derivatives, pharmaceutically acceptable salts thereof and pharmaceutical compositions comprising said compounds” (MITSUBISHI KASEI CORPORATION, priority 1982, dated 1983)

What was measured:
[1] = system: papillary muscle preparation of the dog; experiment: Isolated and cross-circulated papillary muscle preparation of the dog (contractility); details: Canis lupus familiaris, read-out: Developed tension (% Increase); for activation at 0.1 mg: Dose 100 µg i.a.; for activation at 0.03 mg: Dose 30 µg i.a.
Method: (§1) By way of examples, pharmacological test procedures are described below. • (1) An isolated and cross-circulated papillary muscle preparation of the dog An isolated and cross-circulated papillary muscle preparation of the dog was prepared according to the method of Endo and Hashimoto [see American J. Physiol., 218, 1459-1463, (1970) U. S. A.]. A test compound dissolved in a solvent was applied by proximal intraarterial injection and its effect on contractility of the papillary muscle was determined. The results are shown in Table 1. • (2) Isolated left atrium of the guinea pig Male guinea pigs weighing 200 - 300 g were stunned by a blow on the head and the hearts were quickly excised and placed in a Petri dish containing oxygenated Krebs-Hensleit solution. The left atrium was excised. A fine cotton suture was attached to the left atrial appendage. The tissue was mounted in a 30 ml organ bath filled with Krebs-Hensleit solution at 37°C and oxygenated with 95% 02 - 5% C02 mixture. The cotton thread was then attached to a force- displacement transducer connected to a polygraph. A silver wire electrode connected to a stimulator was placed at the bottom of the preparaticn. Resting tension applied was 0.5 g. The preparation was driven electrically by a stimulator at a rate of 120/min. with suprathreshold rectangular pulses of 1 msec duration. The preparation was left to equilibrate for 1 hour. The test compounds dissolved in vehicle were added to the organ bath and the response was recorded. The results are shown in Table 1. • (3) Intact anesthetized dog preparation Mongrel dogs of either sex weighing 8 - 13 kg were anesthetized with sodium pentobarbital (30 mg/kg i.v.). A tracheal cannula was inserted and artificial respiration was carried out by means of a Harvard respiration. The left femoral vein was cannulated for intravenous bolus injection of the test compounds. The chest was opened at the left 4th intercostal space, the heart was exposed, and a _Walton-Brodie type strain gauge was sutured to the wall of the right ventricle to measure myocadial contractile force. A polyethylene cannula connected to a transducer was introduced into the left ventricle through the ventricular wall and left ventricular pressure was measured. Peak positive rate of rise of left ventricular pressure (dP/dt max) was obtained by an electric differentiator. The test compounds were dissolved in appropriate vehicle and intravenously administered.

[2] = system: left atrium of the guinea pig; experiment: Isolated, electrically driven left atrium of the guinea pig (contractility)
Method: as §1

[3] = Acute toxicity, LD50 by the Litchfield-Wilcoxon method; details: in vivo
Method: The values for LD50 were determined by the Litchfield-Wilcoxon method [J. T. Litchfield and F. Wilcoxon, J. Pharmacol. exp. Therap., 96, 99 (1949)].

anesthetized dog = experiment: Intact anesthetized dog preparation (in situ), cardiac contractility; format: in vivo; details: intravenous
Method: as §1

Row | Compound | activation at 0.1 mg [1] [%] | activation at 0.3 mg ([1]; Dose 300 µg i.a.) [%] | Developed tension (% Increase) ([2]; Concentration 3 x 10^-5 g/ml) | Developed tension (% Increase) ([2]; Concentration 10^-5 g/ml) | LD50 ([3]; iv) [mg/kg] | LD50 ([3]; po) [mg/kg] | Contractile force of right ventricle (% Increase) (anesthetized dog; Dose 0.03 mg/kg) | dP/dt max. (% Increase) (anesthetized dog; Dose 0.03 mg/kg) | Contractile force of right ventricle (% Increase) (anesthetized dog; Dose 0.1 mg/kg) | dP/dt max. (% Increase) (anesthetized dog; Dose 0.1 mg/kg) | activation at 0.01 mg ([1]; Dose 10 µg i.a.) [%] | activation at 0.03 mg [1] [%] | Developed tension (% Increase) ([2]; Concentration 3 x 10^-6 g/ml) | Developed tension (% Increase) ([2]; Concentration 10^-6 g/ml) | Contractile force of right ventricle (% Increase) (anesthetized dog; Dose 0.3 mg/kg) | dP/dt max. (% Increase) (anesthetized dog; Dose 0.3 mg/kg) | Contractile force of right ventricle (% Increase) (anesthetized dog; Dose 1 mg/kg) | dP/dt max. (% Increase) (anesthetized dog; Dose 1 mg/kg)
1 | CNC(=S)Nc1ccc(-c2ccc(=O)[nH]n2)cc1 [Example 3, 6-(4-N-methylthioureidophenyl)-3-(2H)-pyridazinone] | 8.1 | 15.9 | 34.0 | 28.3 |  |  |  |  |  |  |  |  |  |  |  |  |  | 
2 | CNC(=S)Nc1ccc(C2=NNC(=O)CC2)cc1 [Example 2, 4,5-dihydro-6-(4-N-methylthioureidophenyl)-3-(2H)-pyridazinone] |  |  |  |  | > 100 | > 2200 | 65.1 | 28.4 | 74.8 | 95.4 | 8.8 | 47.4 | 32.1 | 28.9 |  |  |  | 
3 | NC(=S)Nc1ccc(C2=NNC(=O)CC2)cc1 [Example 1, 4,5-dihydro-6-(4-thioureidophenyl)-3-(2H)-pyridazinone] | 21.2 |  | 44.9 | 24.6 |  |  |  |  |  |  |  | 9.5 |  |  |  |  |  | 
4 | CCNC(=S)Nc1ccc(C2=NNC(=O)CC2)cc1 [Example 4, 4,5-dihydro-6-(4-N-ethylthioureidophenyl)-3-(2H)-pyridazinone] | 11.5 |  | 102 | 85.6 |  |  |  |  |  |  |  | 8.4 |  |  | 75.8 | 49.9 | 116.2 | 79.5
